Test results from patent US9096643B2, “Cell-protective peptides and uses thereof” (priority 2010, dated 2015).
No end group written: not given here.

Assays:
[1] = tested on: neonatal rat CMs (heart cells); test: Heart cell attachment on peptide-modified Az-chitosan coated coverslips (brightfield cell counts); format: cell-based, rat (Sprague-Dawley); settings: coated glass coverslips, 1, 3 and 5 days of incubation, FIG. 1
Protocol: Neonatal (1 to 2 day-old) Sprague-Dawley rats were euthanized according to the procedure approved by the University of Toronto Committee on Animal Care. […] The supernatant from 5 collagenase digests of the tissues was collected and centrifuged at 750 rpm (94 g) for 4 min, resuspended in culture medium and pre-plated into T75 flasks (Falcon) for 1 hour to separate the non-adherent cells (enriched CMs) from the adherent cells (non-myocytes). The enriched CMs were used in the studies. The CM culture medium consisted of Dulbecco's Modified Eagle Medium (DMEM) with 4.5 g/L glucose, 4 mM L-glutamine, 10% certified fetal bovine serum (FBS), 100 U/mL penicillin, 100 μg/mL streptomycin, and 10 mM 4-2-hydroxyethyl-1-piperazineethanesulfonic acid buffer (HEPES, Gibco/Invitrogen).
The surfaces used for microscopy analysis were created on circular 12 mm diameter glass coverslips (VWR). These were plasma treated (WS-400BZ-6NPP/Lite, Laurell Technologies) for 30 s. […]
The day before cells were ready to be seeded, the surfaces in the 12-well plates were sterilized by germicidal UV illumination overnight. […]
Brightfield images were taken with 10× magnification of surfaces with cells (N=3) to visualize the morphology and cell attachment (IX81, Olympus). […] The number of cells was then counted using the cell counting plug-in on ImageJ (NIH version 1.36b).

[2] = tested on: neonatal rat CMs (heart cells); test: Preliminary 3D cell encapsulation studies in hydrogels; format: cell-based, rat (Sprague-Dawley); settings: encapsulated, 1 to 4 days of 3D culture
Protocol: The lyophilized form of the peptide-modified Az-chitosan was dissolved in sterile 0.9% saline at 12 mg/mL. CMs (2.5×10^6) were suspended in 15 μL of CM culture media with 30% serum for 15 minutes on ice. These cells were then suspended in 35 μL of the hydrogel and crosslinked in the transwell inserts of the 96 well plates. The cells were cultivated in the CM culture medium with 10% FBS for up to 4 days.

[3] = tested on: Rat neonatal cardiomyocytes; test: ATP assay (CellTiter-Glo) in serum-starved cardiomyocytes; format: cell-based; settings: 1 d
Protocol: Rat neonatal cardiomyocytes were incubated with PBS (control), 500 μM QHREDGS, scrambled QHREDGS peptide, GRGDSP peptide or 400 nM ang 1 or ang2 in DMEM/0.5% BSA/cytosine-β-D-arabinofuranoside (37° C., 5% CO2, 1 d). ATP levels were quantified using the CellTiter-Glo Luminescent Assay (Promega) as per manufacturer's instructions (N=6/group). Luminescence was measured using a Wallac 1420 microplate reader.

human iPS cells 0901B = test: iPS colony formation / cloning efficiency after complete dissociation at clonal density; format: cell-based; settings: 50 μM, trypsinized, clonal density, one week, FIG. 13B
Protocol: (§1) The human iPS cells (BJ1D and 0901B) were obtained from the Ontario iPSC Facility and used following the hiPS cell research guidelines of the University of Toronto as described by Hotta et al. Nat. Protoc. 4, 1828-1844 (2009)), unless specified otherwise. Cells were cultured on a feeder layer of MEF cells (Mount Sinai Hospital Toronto, inactivated with 10 μg/ml mitomycin C and seeded at 1.8×10^5 per 3.5 cm dish). For single cell cultures, hiPS cell colonies were dissociated in 0.25% Trypsin-EDTA (Invitrogen) for 5 min, followed by trituration with a pipette. To ensure a single-cell suspension, the dissociated cells were passed through a 40 μm cell strainer (BD Falcon) and seeded onto MEF plates at 10 cells/ml, 10 cm plates. Cells were allowed to grow for 7 days and the total number of colonies was counted. In the treated groups, QHREDGS (Biomatik) or DGQESHR (Biomatik) dissolved in PBS (Lonza), were added at the reported concentrations to culture media at the onset of the first treatment passage and replenished with each media change. Media was changed by 100% every day. Peptides and controls were included during dissociation and passaging. Cells were analyzed after 5 passages in continuous treatment with 50 μM QHREDGS, 50 μM DGQESHR, or PBS, unless specified otherwise.
(§2) iPS cells, BJ1D or 0901B were treated with 50 μM of QHREDGS peptide, or 50 μM DGQESHR scrambled peptide in PBS with a PBS treated control for five passages as a preparation for passage by trypsin. Cells were trypsinized and plated at a clonal density of 10 cells/ml for one week and the number of colonies were counted.
(§3) After 5 passages in pre-treatment with 50 μM QHREDGS, or controls and complete dissociation (trypsinized), human iPS cells, BJ1D or 0901B cells, were plated on a mouse embryonic fibroblast (MEF) feeder layer at low density (100 cells/plate, 10 cm plate) in maintenance medium containing 50 μM QHREDGS, PBS, or 50 μM DGQESHR scrambled peptide. After one-week in culture, untreated or DGQESHR (scrambled peptide) treated groups generated few colonies, whereas QHREDGS treated groups for both BJ1D or 0901B cells produced many large colonies (˜15 times more than the controls) (see FIG. 13A/B, respectively). The colonies were positive for Oct4, a marker for the undifferentiated state. The cloning efficiency, based on ratio of Oct4+ colonies formed per initially seeded human iPS cells, was 27+/−7.1% and 2.5+/−0.6% for BJ1D and 48+/−9.4% and 22.3+/−1.9 for 0901B in the presence and absence of QHREDGS, respectively. […] Thus, treatment with QHREDGS supports single-cell culture of human iPS cells through the promotion of colony formation.

human iPS cells BJ1D = test: as above; format: cell-based; settings: 50 μM, trypsinized, clonal density, one week, FIG. 13A
Protocol: as §1, §2, §3

[4] = tested on: neonatal rat cardiomyocytes; test: Cardiomyocyte encapsulation in chitosan hydrogels, live/dead staining after 6 days; format: cell-based; settings: peptide conjugated to Az-chitosan hydrogel, in vitro cultivation
Protocol: The lyophilized form of the peptide-modified Az-chitosan (Az-chitosan-QHREDGS or Az-chitosan-RGDS) was dissolved in sterile 0.9% PBS at 12 mg/mL. Cardiomyocytes (2.5×10^6) were suspended in 15 μL 30% FBS-containing culture medium for 15 min. on ice. These cells were further suspended in 35 μL of the hydrogel. This mixture was placed on a 12 mm diameter glass coverslip, which was placed on a UV lamp (UVP, 365 nm, 1 mW/cm^2 at 3″ distance, 115 V, 60 Hz, 0.16 Amp) and exposed to UV light for 5 min. The samples were then transferred to a 12 well plate and supplemented with 2 mL of warm cardiomyocyte culture media.
Live/dead staining was performed using 5-carboxyfluorescein diacetate acetoxymethly ester, which stains live cells green, and propidium iodide, which stains dead cells red according to the manufacturer's instruction (Invitrogen). Three sets of surfaces were analyzed for each sample type.

[5] = tested on: Rat neonatal cardiomyocytes; test: Hydrogen peroxide treatment, Trypan blue viability (monolayer); format: cell-based; settings: 200 nM ang 1 1.5 hr, 100 μM H2O2 10 min, FIG. 5A
Protocol: Rat neonatal cardiomyocytes were incubated for 1.5 hr with 500 μM QHREDGS, scrambled (scram) QHREDGS peptide (DGQESHR), or PBS control (PBS); 200 nM ang 1 or its matched buffer control [0.1% bovine serum albumin (BSA) in PBS] in the culture medium. The culture medium consisted of Dulbecco's Modified Eagle's Medium (DMEM) with 0.5% BSA and cytosine-β-D-arabinofuranoside (anti-proliferative). Reactive oxygen species were increased by addition of 100 μM H2O2 for 10 min (37° C., 5% CO2) (N=6/group). Cell viability was measured using a Trypan blue stain. Trypan blue dye is impermeable to viable cells, but enters dead/damaged cells with impaired membrane integrity, staining cells blue.

Molecule: Az-chitosan-DGQESHR: scrambled QHREDGS peptide conjugated to Az-chitosan (also: conjugated to Az-chitosan, site not given here) [reference compound]
- cell adhesion / cell attachment to coated surface [1]: did not have the same attachment results
- heart cell survival and elongation in 3D hydrogel [2]: a large number of dead round cells

Molecule: DGQESHR [scrambled QHREDGS peptide control, reference compound]
- cardiac myocyte ATP levels ([3]; 500 μM peptide): no such effect
- number of colonies (human iPS cells 0901B): few colonies
- number of colonies (human iPS cells BJ1D): few colonies

Molecule: QHREDGS (angiopoietin 1 peptide)
- syncytium formation of encapsulated cardiomyocytes [4]: formation of a dense syncytium

Molecule: GRGDSP [RGD-based peptides, reference compound]
- cardiac myocyte ATP levels ([3]; 500 μM peptide): no such effect

B1: ang2: ang2 protein comparator in the ATP assay (protein, UniProt O15123 19-496, looked up)
Angiopoietin-2: YNNFRKSMDSIGKKQYQVQHGSCSYTFLLPEMDNCRSSSSPYVSNAVQRDAPLEYDDSVQRLQVLENIMENNTQWLMKLENYIQDNMKKEMVEIQQNAVQNQTAVMIEIGTNLLNQTAEQTRKLTDVEAQVLNQTTRLELQLLEHSLSTNKLEKQILDQTSEINKLQDKNSFLEKKVLAMEDKHIIQLQSIKEEKDQLQVLVSKQNSIIEELEKKIVTATVNNSVLQKQQHDLMETVNNLLTMMSTSNSAKDPTVAKEEQISFRDCAEVFKSGHTTNGIYTLTFPNSTEEIKAYCDMEAGGGGWTIIQRREDGSVDFQRTWKEYKVGFGNPSGEYWLGNEFVSQLTNQQRYVLKIHLKDWEGNEAYSLYEHFYLSSEELNYRIHLKGLTGTAGKISSISQPGNDFSTKDGDNDKCICKCSQMLTGGWWFDACGPSNLNGMYYPQRQNTNKFNGIKWYYWKGSGYSLKATTMMIRPADF
- cardiac myocyte ATP levels ([3]; 400 nM protein): no such effect

B2: Angiopoietin 1 (protein, UniProt Q15389 1-498, looked up)
chain: MTVFLSFAFLAAILTHIGCSNQRRSPENSGRRYNRIQHGQCAYTFILPEHDGNCRESTTDQYNTNALQRDAPHVEPDFSSQKLQHLEHVMENYTQWLQKLENYIVENMKSEMAQIQQNAVQNHTATMLEIGTSLLSQTAEQTRKLTDVETQVLNQTSRLEIQLLENSLSTYKLEKQLLQQTNEILKIHEKNSLLEHKILEMEGKHKEELDTLKEEKENLQGLVTRQTYIIQELEKQLNRATTNNSVLQKQQLELMDTVHNLVNLCTKEGVLLKGGKREEEKPFRDCADVYQAGFNKSGIYTIYINNMPEPKKVFCNMDVNGGGWTVIQHREDGSLDFQRGWKEYKMGFGNPSGEYWLGNEFIFAITSQRQYMLRIELMDWEGNRAYSQYDRFHIGNEKQNYRLYLKGHTGTAGKQSSLILHGADFSTKDADNDNCMCKCALMLTGGWWFDACGPSNLNGMFYTAGQNHGKLNGIKWHYFKGPSYSLRSTTMMIRPLDF
modifications: full-length
notes: full length parent protein of QHREDGS
- cardiomyocyte viability after exposure to H2O2 [5]: maintain cardiomyocyte viability
- cardiac myocyte ATP levels ([3]; 400 nM protein): substantially increased
